# Source: patent US20020028938A1, “Prostaglandin endoperoxide H synthase biosynthesis inhibitors” (priority 1997, published 2002)
# pIC50: −log10 of the molar value.
# Experiments:
# [1] = target: T1, human amnionic whole cell cyclooxygenase-2 (WISH cells) (Homo sapiens, UniProt P35354); test: IL-1β induced PGE2 production in WISH cells; type: cell-based; settings: for pIC50: read-out: Wish IC50 (parenthetical value)
# T1 construct: endogenous in cells; host or cells: human amnionic WISH cells, induced with IL-1beta
# T1 sequence (P35354 18-604): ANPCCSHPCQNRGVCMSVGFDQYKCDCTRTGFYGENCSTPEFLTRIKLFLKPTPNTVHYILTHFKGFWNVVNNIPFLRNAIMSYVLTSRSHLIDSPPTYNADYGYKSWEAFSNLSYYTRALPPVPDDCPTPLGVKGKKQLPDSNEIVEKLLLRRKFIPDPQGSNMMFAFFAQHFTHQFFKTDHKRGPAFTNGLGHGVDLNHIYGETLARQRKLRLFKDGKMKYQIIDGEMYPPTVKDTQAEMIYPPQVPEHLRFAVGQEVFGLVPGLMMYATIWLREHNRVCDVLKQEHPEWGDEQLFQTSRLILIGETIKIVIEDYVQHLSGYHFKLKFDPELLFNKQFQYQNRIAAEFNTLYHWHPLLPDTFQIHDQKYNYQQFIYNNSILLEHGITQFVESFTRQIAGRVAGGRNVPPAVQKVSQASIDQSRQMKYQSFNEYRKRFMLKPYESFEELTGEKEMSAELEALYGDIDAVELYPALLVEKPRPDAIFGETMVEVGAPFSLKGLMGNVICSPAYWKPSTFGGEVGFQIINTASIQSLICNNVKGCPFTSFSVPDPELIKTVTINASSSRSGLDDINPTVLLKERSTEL
# Procedure: EIA reagents for prostaglandin determination were purchased from Perseptive Diagnostics, (Cambridge, Mass.). Prostaglandin E2 (PGE2) levels in lavage fluids were determined after the samples were dried under nitrogen and reconstituted with assay buffer. PGE2 levels in enzyme assays or cell culture media were measured against standards prepared in the same milieu. The immunoassays were conducted as recommended by the manufacturer. The EIA was conducted in 96 well microtiter plates (Nunc Roskilde, Denmark) and optical density was measured using a microplate reader (Vmax, Molecular Devices Corp., Menlo Park, Calif.).
# Human amnionic WISH cells were grown to 80% confluence in 48 well plates. Following removal of the growth medium and two washings with Geys Balanced Salt Solutn, 5 ng IL-1β /ml (UBI, Lake Placid, N.Y.) was added to the cells with or without test compound in DMSO (0.01% v/v) in Neuman-Tytell Serumless Medium (GIBCO, Grand Island, N.Y.).
# [2] = target: T2, recombinant human Cox-2 (r-hu Cox-2) (Homo sapiens, UniProt P35354); test: Recombinant human PGHS-2 enzyme assay (RHUCX2); type: biochemical; settings: for pIC50: read-out: RHUCX2 IC50 (parenthetical value)
# T2 construct: made in house; host or cells: baculovirus/Sf9 insect cells (microsomes)
# T2 sequence (P35354 18-604): T1 sequence (P35354 18-604)
# Summary of the method: (§1)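 Recombinant enzyme reaction ran 2.5 minutes at room temperature, then was quenched with HCl and neutralized with NaOH. PGE2 formed with and without drug was quantified by EIA against standards in the same milieu. Percent inhibition versus control mean; IC50 by linear regression.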
# [3] = target: T3, recombinant human Cox-1 (r-hu Cox1) (Homo sapiens, UniProt P23219); test: Recombinant human PGHS-1 enzyme assay (RHUCX1); type: biochemical; settings: read-out: RHUCX1 % Inh. at Dose
# T3 construct: made in house; host or cells: baculovirus/Sf9 insect cells (microsomes)
# Summary of the method: as §1
# [4] = 0.1 μM, read-out: Wish % Inhib. at Dose
# [5] = read-out: Wish % Inhib. at Dose
# [6] = read-out: RHUCX2 % Inh. at Dose
# T3 sequence (P23219 24-599): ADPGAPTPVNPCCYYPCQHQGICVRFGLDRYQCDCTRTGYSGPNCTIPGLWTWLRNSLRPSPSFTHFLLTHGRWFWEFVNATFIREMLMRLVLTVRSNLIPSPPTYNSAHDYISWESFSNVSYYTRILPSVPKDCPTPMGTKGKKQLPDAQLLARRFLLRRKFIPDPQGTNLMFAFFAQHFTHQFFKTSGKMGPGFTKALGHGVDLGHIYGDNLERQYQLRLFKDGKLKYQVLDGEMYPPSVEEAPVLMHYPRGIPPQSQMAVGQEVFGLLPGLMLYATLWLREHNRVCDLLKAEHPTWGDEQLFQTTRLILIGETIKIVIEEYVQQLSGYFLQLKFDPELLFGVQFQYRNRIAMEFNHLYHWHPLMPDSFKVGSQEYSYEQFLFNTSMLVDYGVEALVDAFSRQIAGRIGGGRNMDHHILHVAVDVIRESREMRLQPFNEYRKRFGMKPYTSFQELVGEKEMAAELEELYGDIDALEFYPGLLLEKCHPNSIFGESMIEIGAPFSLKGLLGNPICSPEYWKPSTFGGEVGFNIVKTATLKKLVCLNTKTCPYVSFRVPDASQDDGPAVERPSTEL
melting point,"inhibition at 0.1 µM [2, 6]","inhibition at 1 µM [2, 6]",inhibition at 100 µM [3],Compound,further results
250 to 260 °C,–,–,–,"CS(=O)(=O)c1ccc(-c2cnn(-c3ccc(Cl)cc3F)c(=O)c2-c2ccc(F)cc2)cc1 [Example 191, 2-(4-Chloro-2-fluorophenyl)-4-(4-fluorophenyl)-5-[4-(methylsulfonyl)phenyl]-3(2H)-pyridazinone]",pIC50 [1]: 7.22
–,81%,97%,–,"CS(=O)(=O)c1ccc(-c2cnn(-c3cccc(Cl)c3)c(=O)c2COc2ccc(F)cc2)cc1 [Example 207, 2-(3-Chlorophenyl)-4-(4-fluorophenoxmethyl)-5-[4-(methylsulfonyl)phenyl]-3(2H)-pyridazinone]",pIC50 [1]: 7.17
197 to 198 °C,44%,97%,6%,"CS(=O)(=O)c1ccc(-c2cnn(CC(F)(F)F)c(=O)c2-c2ccc(Cl)c(Cl)c2)cc1 [Example 81, 2-(2,2,2-Trifluoroethyl)-4-(3,4-dichlorophenyl)-5-[4-(methylsulfonyl)phenyl]-3(2H)-pyridazinone]",–
134 to 136 °C,83%,99%,–,"CS(=O)(=O)c1ccc(-c2cnn(Cc3ccccc3)c(=O)c2-c2ccc(F)c(Cl)c2)cc1 [Example 52, 2-Benzyl-4-(3-chloro-4-fluorophenyl)-5-[4-(methylsulfonyl)phenyl]-3(2H)-pyridazinone]",inhibition at 10 µM [3]: 32%
166 to 168 °C,–,–,22%,"Cc1cc(-c2c(-c3ccc(S(C)(=O)=O)cc3)cnn(-c3ccc(F)c(F)c3)c2=O)ccc1F [Example 235, 2-(3,4-Difluorophenyl)-4-(4-fluoro-3-methylphenyl)-5-[4-(methylsulfonyl)phenyl]-3(2H)-pyridazinone]",pIC50 [2]: 6.68
289 to 294 °C,–,–,18%,"CS(=O)(=O)c1ccc(-c2cnn(-c3cc(Cl)cc(Cl)c3)c(=O)c2-c2ccc(F)cc2)cc1 [Example 188, 2-(3,5-Dichlorophenyl)-4-(4-fluorophenyl)-5-[4-(methylsulfonyl)phenyl]-3-(2H)-pyridazinone]",pIC50 [2]: 6.28
126 to 127 °C,59%,84%,20%,"CS(=O)(=O)c1ccc(-c2cnn(-c3ccc(F)c(F)c3)c(=O)c2OCCC2C=CCC2)cc1 (stereo not shown) [Example 440, 2-(3,4-Difluorophenyl)-4-(2-cyclopent-2-enyl-1-ethoxy)-5-[4-(methylsulfonyl)phenyl]-3(2H)-pyridazinone]","inhibition at 0.01 µM [2, 6]: 22%"
101 to 103 °C,68%,98%,6%,"CS(=O)(=O)c1ccc(-c2cnn(-c3ccc(F)c(Cl)c3)c(=O)c2Cc2cccc(F)c2)cc1 [Example 249, 2-(3-Chloro-4-fluorophenyl)-4-(3-fluorobenzyl)-5-[4-(methylsulfonyl)phenyl]-3(2H)-pyridazinone]","inhibition at 0.01 µM [2, 6]: 43%"

# The remaining lines, values behind:
Compound,melting point,"inhibition at 0.1 µM [2, 6]","inhibition at 1 µM [2, 6]",inhibition at 100 µM [3],further results
"CC(C)Oc1c(-c2ccc(S(C)(=O)=O)cc2)cnn(-c2cccc(Br)c2)c1=O [Example 203, 2-(3-Bromophenyl)-4-(2-propoxy)-5-[4-(methylsulfonyl)phenyl]-3(2H)-pyridazinone]",130 to 132 °C,–,–,–,"inhibition at 0.1 µM [1, 4]: 23%; inhibition at 1 µM [1, 5]: 77%"
"CC(C)Nc1c(-c2ccc(S(C)(=O)=O)cc2)cnn(CC(F)(F)F)c1=O [Example 86, 2-(2,2,2-Trifluoroethyl)-4-(2-propylamino)-5-[4-(methylsulfonyl)phenyl]-3(2H)-pyridazinone]",–,–,–,–,"inhibition at 0.01 µM ([1]; 0.01 μM, read-out: Wish % Inhib. at Dose): 47%; inhibition at 1 µM [1, 5]: 52%"
"CS(=O)(=O)c1ccc(-c2cnn(Cc3ccccc3)c(=O)c2-c2ccsc2)cc1 [Example 317, 2-Benzyl-4-(3-thienyl)-5-[4-(methylsulfonyl)phenyl]-3(2H)-pyridazinone]",–,–,–,–,pIC50 [1]: 7.57
"CS(=O)(=O)c1ccc(-c2cnn(CC(F)(F)F)c(=O)c2OCc2ccco2)cc1 [Example 271, 2-(2,2,2-Trifluoroethyl)-4-(2-furylmethoxy)-5-[4-(methylsulfonyl)phenyl]-3(2H)-pyridazinone]",113 to 115 °C,–,–,–,"inhibition at 0.1 µM [1, 4]: 15%; inhibition at 1 µM [1, 5]: 52%"
CC(C)CCOc1c(-c2ccc(S(N)(=O)=O)cc2)cnn(C(C)(C)C)c1=O [Example 399],–,–,–,–,Wish % Inhib. at Dose (μM) ([1]; 0.03 μM): 39 @ 0.03%; Wish % Inhib. at Dose (μM) ([1]; 0.1 μM): 82 @ 0.1%
"COc1ccc(-c2c(-c3ccc(S(C)(=O)=O)cc3)cnn(Cc3ccccc3)c2=O)cc1F [Example 326, 2-Benzyl-4-(3-fluoro-4-methoxyphenyl)-5-[4-(methylsulfonyl)phenyl]-3(2H)-pyridazinone]",–,–,–,–,pIC50 [1]: 7.30
"CCCCC(CC)COc1c(-c2ccc(S(C)(=O)=O)cc2)cnn(-c2ccc(F)cc2)c1=O (stereo not shown) [Example 178, 2-(4-Fluorophenyl)-4-(2-ethyl-1-hexyloxy)-5-[4-(methylsulfonyl)phenyl]-3(2H)-pyridazinone]",120 to 122 °C,–,–,6%,"inhibition at 10 µM ([2]; 10 μM, read-out: RHUCX2 % Inh. at Dose): 34%"
"CC(C)CCCc1c(-c2ccc(S(C)(=O)=O)cc2)cnn(-c2ccc(F)cc2)c1=O [Example 420, 2-(4-Fluorophenyl)-4-(4-methylpentyl)-5-[4-(methylsulfonyl)phenyl]-3(2H)-pyridazinone]",112 to 115 °C,–,–,29%,pIC50 [2]: 6.49
"CON=C(Cn1ncc(-c2ccc(S(C)(=O)=O)cc2)c(-c2ccc(F)cc2)c1=O)c1ccccc1 [Example 443, 2-(2-Methoxyimino-2-phenylethyl)-4-(4-fluorophenyl)-5-[4-(methylsulfonyl)phenyl]-3(2H)-pyridazinone]",95 to 99 °C,86%,–,35%,"inhibition at 0.01 µM [2, 6]: 74%"
"COc1ccccc1-c1c(-c2ccc(S(C)(=O)=O)cc2)cnn(Cc2ccccc2)c1=O [Example 324, 2-Benzyl-4-(2-methoxyphenyl)-5-[4-(methylsulfonyl)phenyl]-3(2H)-pyridazinone]",–,–,–,–,pIC50 [1]: 7.33
NS(=O)(=O)c1ccc(-c2cnn(C3C=CCCC3)c(=O)c2-c2ccc(F)cc2)cc1 (stereo not shown) [Example 126],–,–,–,–,pIC50 [1]: 7.30
"CC(C)CCOc1c(-c2ccc(S(C)(=O)=O)cc2)cnn(CC(F)(F)F)c1=O [Example 447, 2-(2,2,2-Trifluoroethyl)-4-(3-methylbutoxy)-5-[4-(methylsulfonyl)phenyl]-3(2H)-pyridazinone]",111 to 113 °C,57%,90%,0%,"inhibition at 0.01 µM [2, 6]: 35%"
"NS(=O)(=O)c1ccc(-c2cnn(-c3ccc(F)cc3)c(=O)c2Cc2cccc(F)c2)cc1 [Example 253, 2-(4-Fluorophenyl)-4-(3-fluorobenzyl)-5-[4-(aminosulfonyl)phenyl]-3(2H)-pyridazinone]",199 to 202 °C,–,–,77%,pIC50 [2]: 6.57; inhibition at 10 µM [3]: 29%
"CS(=O)(=O)c1ccc(-c2cnn(C=C(F)C(F)(F)C(F)(F)F)c(=O)c2-c2ccc(F)cc2)cc1 [Example 40, 2-(2,3,3,4,4,4-Hexafluorobuten-1-yl)-4-(4-fluorophenyl)-5-[4-(methylsulfonyl)phenyl]-3(2H)-pyridazinone]",167 to 169 °C,89%,97%,–,inhibition at 1 µM ([3]; 1 μM): 69%; inhibition at 10 µM [3]: 76%
